Results as given in US4103025A, “Novel terpenes” (Inverni Della Beffa S.p.A., priority 1974, dated 1978).

Legend:
[1] = LD50 in mice (intraperitoneal); settings: mouse, in vivo, ip, intraperitoneal administration
Excerpt: The LD50 in mice (as determined with intraperitoneal administration) for sericic acid and sericoside was as follows: […]

[2] = tested on: Carragenin-induced oedema; experiment: Anti-inflammatory activity against carragenin-induced oedema in rats, intraperitoneal administration; type: in vivo; settings: for Volume of the oedema (Average ± S.D.): maximum volume after 3 hours
Method: (§1) Anti-inflammatory Activity Against Carragenin-induced Oedema in Rats
(§2) The anti-inflammatory activities of sericoside and sericic acid were determined by measuring the extent to which the oedema caused by sub-plantar administration of carragenin to rats could be inhibited by prior oral and intraperitoneal administration of the substances.
(1) Administration endoperitoneally 30 minutes prior to the injection of
(2) Maximum volume measured after 3 hours.

[3] = tested on: Ultra-violet ray erythema; experiment: Activity against ultra-violet ray erythema in guinea pigs (method of Winder et al.); type: in vivo, male albino guinea pigs; settings: for Erythema Score, 2 h / Erythema Score, 4 h / Erythema Score, 6 h / Erythema Score, 8 h / Erythema Score, 22 h: 5% gel (200 mg) one hour prior to irradiation; for Erythema Score, 2 h: 0 = no erythema, 0.5 = moderate reddening, 1 = marked reddening, 2 = obvious erythema, controls 1.15 ± 0.17; for Erythema Score, 4 h: controls 2.40 ± 0.30; for Erythema Score, 6 h: controls 2.55 ± 0.34; for Erythema Score, 8 h: controls 2.35 ± 0.18; for Erythema Score, 22 h: controls 1.05 ± 0.23; for Percentage inhibition of erythema compared with the controls, 2 h / Percentage inhibition of erythema compared with the controls, 4 h / Percentage inhibition of erythema compared with the controls, 6 h / Percentage inhibition of erythema compared with the controls, 8 h / Percentage inhibition of erythema compared with the controls, 22 h: 5% gel (200 mg), in parentheses
Method: Activity Against Ultra-Violet Ray Erythema
Ultra-violet ray erythema in guinea pigs was effected in accordance with the method of Winder et al. (Arch. Int. Pharmacodyn, 106, 261, 1968).
Sericoside and sericic acid were applied to the depilated skin of male albino guinea pigs (average weight 300 - 400 g) in the form of a 5% gel (using 200 mg. thereof) one hour prior to irradiation. The animals were depilated 18 hours prior to the irradiation and irradiated for 3 minutes with a 500 W. mercury vapor lamp at a distance of 18 cms.

[4] = tested on: Carragenin-induced oedema; experiment: Anti-inflammatory activity against carragenin-induced oedema in rats, oral administration; type: in vivo; settings: 200 mg/kg orally for 3 days; for Percentage inhibition of the oedema: 3 hours after carragenin; for Volume of oedema (Average ± S.D.): maximum volume 3 hours after carragenin, controls 0.30 ± 0.005
Method: as §1, §2
^(1) Doses administered orally for 3 days; on the third day the
administration was effected two hours before the subplantar injection of
^(2) Maximum volume of the oedema measured 3 hours after the
subplantar injection of carragenin.

[5] = Relative solubility in chlorinated hydrocarbon and aqueous solvents; type: physicochemical; settings: chlorinated hydrocarbon solvents versus water/aqueous solvents
[6] = tested on: Gastric ulcer induced by Shay's method; experiment: Anti-ulcer activity - gastric ulcer in rats induced by Shay's method; type: in vivo; settings: for Diminution of the ulcer index compared with the controls: 200 mg/kg orally five times; for Number of ulcers of class I / Number of ulcers of class II / Number of ulcers of class III / Number of ulcers of class IV / Number of ulcers of class V: 13 animals; for Percentage ulcer variation in relation to controls: Table 1; for Ulcer Index: controls 75; for Product of the number of ulcers and the numerical value attributed to the class, class I / Product of the number of ulcers and the numerical value attributed to the class, class II / Product of the number of ulcers and the numerical value attributed to the class, class III / Product of the number of ulcers and the numerical value attributed to the class, class IV / Product of the number of ulcers and the numerical value attributed to the class, class V: in parentheses
Method: Anti-ulcer activity - Gastric Ulcer in the rats induced by Shay's method
The anti-ulcer activity of sericic acid and sericoside was determined by administering the compounds to rats in which gastric ulcers were induced by Shay's method. The compounds were administered at the dose of 200 mg./kg. orally five times, at 42, 30, 25 and 6 hours before tying of the pylorus and immediately after the operation and as shown in Table 1 diminished the ulcer index by 48 and 45 per cent respectively, compared with the controls.
^(1) Doses administered orally 5 times, 42, 30, 25 and 6 hours prior
to and immediately after the tying of the pylorus.
^(2) In parentheses the product of the number of ulcers and the
numerical value attributed to the individual classes according to the
individual classes according to the evaluation criterion of T. O.
Keyrilainen and M. K. Paasonen (Acta Pharmacol. et. Toxicol. 13, 22, 1957

Experimental wounds = experiment: Cicatrizing activity upon experimental wounds in rats (method of Morton & Malone); type: in vivo; settings: for Healing activity compared with the controls: especially in the first days of treatment; for Percentage remargination (Average ± S.D.), Day I / Percentage remargination (Average ± S.D.), Day II / Percentage remargination (Average ± S.D.), Day III / Percentage remargination (Average ± S.D.), Day V / Percentage remargination (Average ± S.D.), Day VI: topical 10% suspension in 2% CMC, 0.1 ml/rat/day; for Percentage remargination (Average ± S.D.), Day I: control 5.2 ± 1.1; for Percentage remargination (Average ± S.D.), Day II: control 12.8 ± 1.5; for Percentage remargination (Average ± S.D.), Day III: control 21.9 ± 3.1; for Percentage remargination (Average ± S.D.), Day V: control 39.63 ± 2.3; for Percentage remargination (Average ± S.D.), Day VI: control 57.4 ± 2.1
Method: Cicatrizing Activity Upon Experimental Wounds in Rats
The cicatrizing activity of sericic acid and sericoside upon experimental wounds was determined on rats in accordance with the method of Morton & Malone (Arch. Int. Pharmacodyn. Ther. 196, 117, 1972).
The treatment of the wounds was effected with a 10% suspension of the active principles in water containing 2% carboxymethyl cellulose (CMC). The suspensions were used in doses of 0.1 ml. for each application, one treatment being effected per day.
Note: Topical treatment effected on each of the days on which measurement
were taken (I, II, III, V, and VI).

[7] = 50 mg/kg endoperitoneally 30 minutes prior to carragenin
[8] = 50 mg/kg endoperitoneally 30 minutes prior to carragenin, controls 0.31 ± 0.006
[9] = 100 mg/kg endoperitoneally 30 minutes prior to carragenin

Compound	LD50 [1] [mg/kg]	Percentage inhibition of the oedema [2, 7] [%]	Volume of the oedema (Average ± S.D.) [2, 8] [mL]	Percentage inhibition of the oedema [2, 9] [%]	Erythema Score, 2 h [3]	Erythema Score, 4 h [3]	Erythema Score, 6 h [3]	Erythema Score, 8 h [3]	Erythema Score, 22 h [3]	Percentage inhibition of erythema compared with the controls, 2 h [3] [%]	Percentage inhibition of erythema compared with the controls, 4 h [3] [%]	Percentage inhibition of erythema compared with the controls, 6 h [3] [%]	Percentage inhibition of erythema compared with the controls, 8 h [3] [%]	Percentage inhibition of erythema compared with the controls, 22 h [3] [%]	Percentage inhibition of the oedema [4] [%]	Volume of oedema (Average ± S.D.) [4] [mL]	Relative solubility [5]	Diminution of the ulcer index compared with the controls [6] [per cent]	Number of ulcers of class I ([6]; 200 mg/kg orally, 5 times)	Number of ulcers of class II ([6]; 200 mg/kg orally, 5 times)	other results
CC1(C)CC[C@]2(C(=O)OC3O[C@H](CO)[C@@H](O)[C@H](O)[C@H]3O)CC[C@]3(C)C(=CC[C@@H]4[C@@]5(C)C[C@@H](O)[C@H](O)[C@](C)(CO)[C@@H]5CC[C@]43C)[C@@H]2[C@@H]1O (some centres unmarked)	> 1000	35	0.20 ± 0.005	67	0.75 ± 0.17	1.70 ± 0.23	1.95 ± 0.22	1.30 ± 0.25	0.70 ± 0.15	34.8	29.2	23.5	44.7	33.3	26	0.22 ± 0.010	generally more soluble in aqueous solvents than chlorinated hydrocarbons	45	369	15	Number of non-ulcerated stomachs (per cent) ([6]; 200 mg/kg orally, 5 times): 7.6 per cent; Number of ulcers of class III ([6]; 200 mg/kg orally, 5 times): 1; Number of ulcers of class IV ([6]; 200 mg/kg orally, 5 times): 0; Number of ulcers of class V ([6]; 200 mg/kg orally, 5 times): 3; Percentage ulcer variation in relation to controls ([6]; 200 mg/kg orally, 5 times): -48%; Ulcer Index ([6]; 200 mg/kg orally, 5 times): 39.5; Product of the number of ulcers and the numerical value attributed to the class, class I ([6]; 200 mg/kg orally, 5 times): 369; Product of the number of ulcers and the numerical value attributed to the class, class II ([6]; 200 mg/kg orally, 5 times): 75; Product of the number of ulcers and the numerical value attributed to the class, class III ([6]; 200 mg/kg orally, 5 times): 10; Product of the number of ulcers and the numerical value attributed to the class, class IV ([6]; 200 mg/kg orally, 5 times): 0; Product of the number of ulcers and the numerical value attributed to the class, class V ([6]; 200 mg/kg orally, 5 times): 60; Healing activity compared with the controls (Experimental wounds): significant healing activity; Percentage remargination (Average ± S.D.), Day I (Experimental wounds): 13.9 ± 1.4%; Percentage remargination (Average ± S.D.), Day II (Experimental wounds): 23.7 ± 1.5%; Percentage remargination (Average ± S.D.), Day III (Experimental wounds): 36.8 ± 2.0%; Percentage remargination (Average ± S.D.), Day V (Experimental wounds): 53.30 ± 2.8%; Percentage remargination (Average ± S.D.), Day VI (Experimental wounds): 68.2 ± 2.1%
CC1(C)CC[C@]2(C(=O)O)CC[C@]3(C)C(=CC[C@@H]4[C@@]5(C)C[C@@H](O)[C@H](O)[C@](C)(CO)[C@@H]5CC[C@]43C)[C@@H]2[C@@H]1O	> 1000	25	0.23 ± 0.008	64	0.95 ± 0.12	1.80 ± 0.21	2.05 ± 0.22	1.35 ± 0.18	0.60 ± 0.10	17.4	25	19.6	42.5	42.8	23	0.23 ± 0.009	generally more soluble in chlorinated hydrocarbon solvents than in water	48	279	12	Volume of the oedema (Average ± S.D.) ([2]; 100 mg/kg endoperitoneally 30 minutes prior to carragenin, controls 0.31 ± 0.010): 0.11 ± 0.006 mL; Number of ulcers of class III ([6]; 200 mg/kg orally, 5 times): 3; Number of ulcers of class IV ([6]; 200 mg/kg orally, 5 times): 2; Number of ulcers of class V ([6]; 200 mg/kg orally, 5 times): 9; Percentage ulcer variation in relation to controls ([6]; 200 mg/kg orally, 5 times): -45%; Ulcer Index ([6]; 200 mg/kg orally, 5 times): 45; Product of the number of ulcers and the numerical value attributed to the class, class I ([6]; 200 mg/kg orally, 5 times): 279; Product of the number of ulcers and the numerical value attributed to the class, class II ([6]; 200 mg/kg orally, 5 times): 60; Product of the number of ulcers and the numerical value attributed to the class, class III ([6]; 200 mg/kg orally, 5 times): 30; Product of the number of ulcers and the numerical value attributed to the class, class IV ([6]; 200 mg/kg orally, 5 times): 40; Product of the number of ulcers and the numerical value attributed to the class, class V ([6]; 200 mg/kg orally, 5 times): 180; Healing activity compared with the controls (Experimental wounds): significant healing activity; Percentage remargination (Average ± S.D.), Day I (Experimental wounds): 10.4 ± 1.3%; Percentage remargination (Average ± S.D.), Day II (Experimental wounds): 23.7 ± 2.3%; Percentage remargination (Average ± S.D.), Day III (Experimental wounds): 36.9 ± 2.7%; Percentage remargination (Average ± S.D.), Day V (Experimental wounds): 48.00 ± 1.5%; Percentage remargination (Average ± S.D.), Day VI (Experimental wounds): 59.0 ± 2.2%
